Values joined by “and” are separate entries in the source; they are usually repeats but may differ in a detail not shown here. Identical values can stand only once.
Experiments:
[1] = system: OT-I CD8+ T cells; test: T cell activation assay (CD25, CD69 by flow cytometry); assay type: cell-based, mouse; details: for CD25, group mean (Mean 2) / CD69, group mean (Mean 2): Fig. 2A; for CD25 (MFI), single replicates / CD69 (MFI), single replicates: N4 1 nM, 1 μM, 48 h, Fig. 2A raw data
Method: The cell surface markers CD8, CD25, and CD69 were analyzed using fluorophore-conjugated antibodies by flow cytometry.

[2] = system: STAT-1 target genes in AT3 tumors; test: qPCR of STAT-1 target genes in AT3 tumors; assay type: in vivo, mouse
Method: For quantitative real-time PCR analysis, RNA from tumors was isolated using RNAzol (Sigma-Aldrich, St. Louis, MO), and RNA quality was assessed using a NanoDrop 2000 (Thermo Fisher Scientific, Waltham MA). mRNA was reverse-transcribed using the High-Capacity cDNA Reverse Transcription Kit (Applied Biosystems, Thermo Fisher Scientific, Waltham, MA) and processed for quantitative Real-Time PCR using the Fast SYBR Green Master Mix (Applied Biosystems, Thermo Fisher Scientific, Waltham MA) and PrimePCR™ SYBR Green Assays (Bio-Rad, Hercules, CA) for Cxcl9 (qMmuCID0023784), Cxcl10 (qMmuCED0049500), Tapbp (qMmuCEP0035035), Tap1 (qMmuCEP0057739), […], H2ab1 (qMmuCIP0029038), Cd274 (qMmuCED0044192), H2k1 (qMmuCEP0034842), Tnf (qMmuCED0004141) and Ifng (qMmuCID0006268). Relative gene expression was determined by normalization to the house-keeping gene Rps18 (qMmuCED0045430) or Gapdh (qMmuCED0027497). Gene quantification was performed with the comparative Ct (ΔΔCt) method.

[3] = system: AT3 mammary tumors; test: Tumor-infiltrating lymphocytes in AT3 tumors, Compound 182 with α-PD-1; assay type: in vivo, mouse; design: CD4 EM / CD8 EM / IFNg+ TNF+ / GRZMB / MDSCs / NK cells / Tregs: unit not given here
Method: In addition, mice received four intraperitoneal injections of α-PD-1 (200 μg in 200 μl D-PBS; clone RMP1-14), or rat IgG2a isotype control (100 μg in 200 μl D-PBS, Bio X Cell) twice per week.
Tumor-bearing mice were sacrificed and tumors were excised and digested at 37 °C for 30 min using a cocktail of 1 mg/ml collagenase type IV (Worthington Biochemicals) and 0.02 mg/ml DNase I (Sigma-Aldrich) in DMEM supplemented with 2% (v/v) FBS. Cells were passed through a 70 μm cell strainer (BD Biosciences) twice and processed for flow cytometry. For assessing T cell activation, cells were surface stained with fluorophore-conjugated antibodies to CD62L, CD44, PD-1, and TIM-3. For the assessment of NK cells, B cells, myeloid-derived suppressor cells (MDSCs), dendritic cells (DCs), and tumor-associated macrophages, cells were surface stained with fluorophore-conjugated antibodies to NK1.1, TCRβ, CD19, CD11b, CD11c, F4/80, Ly6C and Ly6G. For the detection of intracellular cytokines TNF and IFNγ, T cells were stimulated with PMA (20 ng/ml; Sigma-Aldrich) and ionomycin (1 μg/ml; Sigma-Aldrich) in the presence of GolgiPlug™ and GolgiStop™ (BD Biosciences) for 4 h at 37 °C in complete T cell medium. For the intracellular detection of granzyme B, cells were processed untreated without the addition of BD GolgiPlug™ and BD GolgiStop™.

[4] = system: p-STAT-1 and CD3 in AT3-OVA tumors; test: Immunohistochemistry for p-STAT-1 (Y701) and CD3 in AT3-OVA tumors; assay type: in vivo, mouse; details: 10 mg/kg i.v.
Method: For the immunohistochemistry analysis of mammary tumor samples, samples were dissected and fixed in 10% formalin. After fixation, the tissues were embedded in paraffin and sectioned onto microscopic glass slides at 4 μm thickness per section. After deparaffinization and rehydration, the slides were subjected to antigen retrieval in Tris/EDTA buffer (pH 8.0) at 120 °C for 10 min and then cooled down to room temperature. The slides were blocked with 5% (v/v) normal goat serum (NGS) containing 0.1% (v/v) TritonX-100 in PBS for 1 h at room temperature and then incubated with primary antibody p-STAT-1 (Tyr701) (1:500; Cell Signaling Technology), or CD3ε (1:1000; Dako) at room temperature for 1 h. Slides were then washed with PBS containing 0.05% (w/v) Tween-20 and visualized using a rabbit IgG VECTORSTAIN ABC Elite and DAB (3,3′‐diaminobenzidine) Peroxidase Substrate Kit (Vector Laboratories, UK) and counterstained with haematoxylin. Slides were imaged on an Olympus CX43 microscope (Olympus, Tokyo, Japan).

[5] = Lck-Cre;Ptpn2fl/fl (2K) OT-I cells, listed as 2KI
[6] = wild type OT-I cells + inhibitor, n 6
[7] = wild type OT-I cells, listed as WTI
[8] = Figure 9A, qPCR in tumour, individual mice, CMP-182 vs Saline
[9] = Figure 9D, tumour-infiltrating cells, AT-3, individual mice, listed as CMP-182
[10] = Figure 9E, AT-3, individual mice, listed as CMP-182
[11] = Figure 9F, tumour-infiltrating cells, AT-3, individual mice, listed as CMP-182

## CC(C)(O)CCOc1ccc2cc(O)c(N3CC(=O)NS3(=O)=O)c(F)c2c1 [Compound 182, 5-(1-Fluoro-3-hydroxy-7-(3-hydroxy-3-methylbutoxy)naphthalen-2-yl)−1,2,5-thiadiazolidin-3-one 1,1-dioxide]
[1]; 2K OT-I cells + inhibitor, n 4
  CD25, group mean (Mean 2): 49238
  CD69, group mean (Mean 2): 3065
[1]; [5]
  CD25 (MFI), single replicates: 50690 and 58145 and 42341 and 45775
  CD69 (MFI), single replicates: 3049 and 3660 and 3360 and 2191
[1]; OT-I cells, SIINFEKL (N4)
  antigen-induced activation of CD8+ T cells (CD25, CD69): enhanced
[1]; [6]
  CD25, group mean (Mean 2): 43739
  CD69, group mean (Mean 2): 2723
[1]; [7]
  CD25 (MFI), single replicates: 44120 and 42537 and 42315 and 46694 and 45914 and 40851
  CD69 (MFI), single replicates: 2509 and 2213 and 3486 and 2750 and 2693 and 2686
[2]; 10 mg/kg i.v.
  expression of STAT-1 target genes, including Cd274, in AT3 tumors: increased expression
[2]; [8]
  cd274: 1.71 and 1.441 and 1.3642 and 1.436 and 2.196 and 0.7307
  cxcl9: 2.179 and 2.3662 and 1.906 and 0.2814 and 3.487 and 0.6344
  cxcl10: 1.765 and 1.612 and 1.49 and 0.6644 and 2.144 and 0.8593
[3]; Compound 182 10 mg/kg i.v. + α-PD-1 200 μg i.p.
  recruitment of CD4+ and CD8+ effector/memory T cells, combination therapy: synergistic recruitment
[3]; [9]
  CD4 EM: 43342.4 and 57673.5 and 79430.7 and 97780.3 and 96326.3 and 45818.5
  CD8 EM: 103472 and 141360 and 229947 and 172459 and 191087 and 113353
[3]; [10]
  GRZMB: 24.8 and 18.9 and 21.2 and 17 and 24 and 19.1
  PD-1 TIM-3: 32.5 and 47.7 and 47.8 and 31.8 and 39.5 and 41.5
[3]; Figure 9E, first IFNg+ TNF+ panel, AT-3, individual mice, listed as CMP-182
  IFNg+ TNF+: 7.74 and 4.13 and 7.71 and 10.5 and 16.5 and 3.24
[3]; Figure 9E, second IFNg+ TNF+ panel, AT-3, individual mice, listed as CMP-182
  IFNg+ TNF+: 19 and 26.4 and 15.4 and 31.9 and 43.5 and 25.3
[3]; [11]
  MDSCs: 15172.6 and 12646.1 and 18636.2 and 29520.3 and 27688.9 and 13342.8
  NK cells: 41998.7 and 24391.4 and 32687 and 55002.2 and 59698.1 and 23635.5
  Tregs: 32249.8 and 40798.3 and 43823.5 and 55176.6 and 44430.4 and 6773.49
[4]
  p-STAT-1 signaling and T cell infiltrates in AT3-OVA tumors of Lck-Cre;Ptpn2fl/fl mice: did not further increase
[4]; C57BL/6 mice
  p-STAT-1 staining and abundance of CD3ε+ T cells in AT3-OVA tumors: increased
